# Molecular target: T1, Tyrosine-protein phosphatase non-receptor type 1 (Homo sapiens, UniProt P18031)
# T1 sequence (P18031 whole entry): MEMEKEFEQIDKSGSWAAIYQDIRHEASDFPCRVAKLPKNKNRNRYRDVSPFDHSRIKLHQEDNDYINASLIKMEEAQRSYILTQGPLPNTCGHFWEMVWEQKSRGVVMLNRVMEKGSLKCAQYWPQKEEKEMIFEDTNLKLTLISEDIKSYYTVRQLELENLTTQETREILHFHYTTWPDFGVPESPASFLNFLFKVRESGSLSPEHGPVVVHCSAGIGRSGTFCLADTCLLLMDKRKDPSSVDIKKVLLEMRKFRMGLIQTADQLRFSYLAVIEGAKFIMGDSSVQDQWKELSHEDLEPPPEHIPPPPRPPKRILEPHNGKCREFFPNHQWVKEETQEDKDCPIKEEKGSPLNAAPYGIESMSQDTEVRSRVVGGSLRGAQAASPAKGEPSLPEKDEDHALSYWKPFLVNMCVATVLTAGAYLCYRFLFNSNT
# Test: Inhibition of PTP1B by pNPP hydrolase assay
row,Compound,IC50
1,O=C1ON=C(c2ccccc2)/C1=C\c1ccccc1OCc1ccccc1Cl,22 µM
2,N#C/C(=C\c1ccc(-c2ccccc2C(=O)O)o1)C(=O)Nc1ccc2ccccc2c1,27 µM
3,O=C1NC(=O)/C(=C\c2ccc(OCc3ccc(F)cc3)c(Br)c2)S1,11 µM
4,O=C(O)c1cc(-c2ccc(/C=C3\NC(=O)N(c4ccccc4)C3=O)o2)ccc1Cl,34 µM
5,O=C(O)c1cccc(-c2ccc(-c3nc4sc5c(c4c(=O)[nH]3)CCCC5)o2)c1,25 µM
6,CCOc1ccc(-c2csc(C(C#N)CNc3ccc4oc(=O)ccc4c3)n2)cc1 (centres undefined),28 µM
7,COc1cc(C)ccc1OCCn1cccc1/C=C1\C(=O)NC(=O)N(c2ccc(C)c(Cl)c2)C1=O,35 µM
8,O=C1NC(=O)N(c2ccccc2)C(=O)/C1=C\c1cn(Cc2cccc3ccccc23)c2ccccc12,12 µM
9,O=C(O)c1ccc(Nc2cc3ccccc3cc2NS(=O)(=O)c2ccc(F)cc2)cc1,41 µM

# — ChEMBL document CHEMBL1152998, “Structure-based virtual screening approach to identify novel classes of PTP1B inhibitors” (Eur J Med Chem, 2009)
